# From publication PMC12708883 (Frontiers in Microbiology, 2025)
# T1: YhjE (Escherichia coli, UniProt P37643)
# T1 sequence (P37643 1-440): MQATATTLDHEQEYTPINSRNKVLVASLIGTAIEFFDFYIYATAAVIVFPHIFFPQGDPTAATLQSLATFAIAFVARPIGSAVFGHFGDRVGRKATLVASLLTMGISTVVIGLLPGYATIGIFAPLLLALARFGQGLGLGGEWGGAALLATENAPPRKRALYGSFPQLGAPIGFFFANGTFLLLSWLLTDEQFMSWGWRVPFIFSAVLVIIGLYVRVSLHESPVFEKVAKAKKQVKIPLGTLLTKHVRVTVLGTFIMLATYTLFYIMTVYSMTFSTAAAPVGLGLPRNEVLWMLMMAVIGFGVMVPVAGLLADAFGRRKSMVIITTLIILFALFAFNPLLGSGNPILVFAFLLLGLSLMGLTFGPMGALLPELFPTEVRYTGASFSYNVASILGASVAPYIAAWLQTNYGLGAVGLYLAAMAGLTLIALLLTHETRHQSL
# B1: YhjE (Escherichia coli K-12) (protein)
# chain: MQATATTLDHEQEYTPINSRNKVLVASLIGTAIEFFDFYIYATAAVIVFPHIFFPQGDPTAATLQSLATFAIAFVARPIGSAVFGHFGDRVGRKATLVASLLTMGISTVVIGLLPGYATIGIFAPLLLALARFGQGLGLGGEWGGAALLATENAPPRKRALYGSFPQLGAPIGFFFANGTFLLLSWLLTDEQFMSWGWRVPFIFSAVLVIIGLYVRVSLHESPVFEKVAKAKKQVKIPLGTLLTKHVRVTVLGTFIMLATYTLFYIMTVYSMTFSTAAAPVGLGLPRNEVLWMLMMAVIGFGVMVPVAGLLADAFGRRKSMVIITTLIILFALFAFNPLLGSGNPILVFAFLLLGLSLMGLTFGPMGALLPELFPTEVRYTGASFSYNVASILGASVAPYIAAWLQTNYGLGAVGLYLAAMAGLTLIALLLTHETRHQSL
# Tests used:
# YhjE [1] = target: T1, YhjE; assay: inhibition of L-[3H]isoleucine uptake into whole cells, […] min; format: cell-based; conditions: 50 μM L-[3H]isoleucine, M9 + 0.2% glucose, 37 °C; B2394[pBR-yhjE]; single replicate
# BrnQ = target: T2, BrnQ (Escherichia coli, UniProt P0AD99); assay: radiolabelled uptake into whole cells, […] min; format: cell-based; conditions: sole carrier strain, M9 + 0.2% glucose, 37 °C; labelled compound
# T2 construct: native chromosomal gene, sole carrier in livKHMGF yhjE double mutant cells
# T2 sequence (P0AD99 whole entry): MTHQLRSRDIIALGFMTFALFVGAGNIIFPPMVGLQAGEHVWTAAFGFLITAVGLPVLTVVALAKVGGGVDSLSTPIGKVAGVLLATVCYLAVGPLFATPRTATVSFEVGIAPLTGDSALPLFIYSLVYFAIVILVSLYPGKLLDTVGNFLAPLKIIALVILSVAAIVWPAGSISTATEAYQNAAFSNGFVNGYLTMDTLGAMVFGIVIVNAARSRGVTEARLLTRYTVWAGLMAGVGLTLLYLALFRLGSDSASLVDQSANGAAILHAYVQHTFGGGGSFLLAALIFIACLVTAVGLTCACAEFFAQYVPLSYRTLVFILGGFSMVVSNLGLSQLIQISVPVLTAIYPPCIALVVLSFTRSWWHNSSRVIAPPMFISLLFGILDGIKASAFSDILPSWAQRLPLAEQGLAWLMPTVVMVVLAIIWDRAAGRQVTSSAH
# YhjE [2] = target: YhjE (Escherichia coli, UniProt P37643, P55S); assay: radiolabelled uptake into whole cells, […] min; format: cell-based; conditions: 50 μM substrate, M9 + 0.2% glucose, 37 °C; B2933 with mutant pBR-yhjE; labelled compound
# Sequence of YhjE (Escherichia coli, UniProt P37643, P55S) (P37643 whole entry P55S): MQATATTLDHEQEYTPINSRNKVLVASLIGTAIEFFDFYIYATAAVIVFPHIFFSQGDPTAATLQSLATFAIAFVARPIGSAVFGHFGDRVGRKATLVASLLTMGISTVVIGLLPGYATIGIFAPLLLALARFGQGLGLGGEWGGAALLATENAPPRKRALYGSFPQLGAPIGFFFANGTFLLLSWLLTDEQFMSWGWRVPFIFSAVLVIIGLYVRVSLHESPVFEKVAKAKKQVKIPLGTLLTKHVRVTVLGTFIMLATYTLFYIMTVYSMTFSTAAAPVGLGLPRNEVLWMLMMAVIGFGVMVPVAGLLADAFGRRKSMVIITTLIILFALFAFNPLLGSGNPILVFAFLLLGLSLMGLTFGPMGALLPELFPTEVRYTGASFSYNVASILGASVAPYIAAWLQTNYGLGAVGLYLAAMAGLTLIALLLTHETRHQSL
# YhjE [3] = target: YhjE (Escherichia coli, UniProt P37643, S271F/V290M); assay: radiolabelled uptake into whole cells, […] min; format: cell-based; conditions: 50 μM substrate, M9 + 0.2% glucose, 37 °C; B2933 with mutant pBR-yhjE; labelled compound
# Sequence of YhjE (Escherichia coli, UniProt P37643, S271F/V290M) (P37643 whole entry S271F/V290M): as the sequence (P37643 whole entry P55S) above, with S55P, S271F, V290M counted along it
# YhjE [4] = target: YhjE (Escherichia coli, UniProt P37643, T276I); assay: radiolabelled uptake into whole cells, […] min; format: cell-based; conditions: 50 μM substrate, M9 + 0.2% glucose, 37 °C; B2933 with mutant pBR-yhjE; labelled compound
# Sequence of YhjE (Escherichia coli, UniProt P37643, T276I) (P37643 whole entry T276I): as the sequence (P37643 whole entry P55S) above, with S55P, T276I counted along it
# YhjE [5] = target: YhjE (Escherichia coli, UniProt P37643, M359I); assay: radiolabelled uptake into whole cells, […] min; format: cell-based; conditions: 50 μM substrate, M9 + 0.2% glucose, 37 °C; B2933 with mutant pBR-yhjE; labelled compound
# Sequence of YhjE (Escherichia coli, UniProt P37643, M359I) (P37643 whole entry M359I): as the sequence (P37643 whole entry P55S) above, with S55P, M359I counted along it
# YhjE [6] = target: YhjE (Escherichia coli, UniProt P37643, T273I); assay: radiolabelled uptake into whole cells, […] min; format: cell-based; conditions: 50 μM substrate, M9 + 0.2% glucose, 37 °C; B2933 with mutant pBR-yhjE; labelled compound
# Sequence of YhjE (Escherichia coli, UniProt P37643, T273I) (P37643 whole entry T273I): as the sequence (P37643 whole entry P55S) above, with S55P, T273I counted along it
# LIV-I (LivJFGHM) = target: T3, LIV-I (LivJFGHM) (Escherichia coli, UniProt P0AD96); assay: radiolabelled uptake into whole cells, […] min; format: cell-based; conditions: sole carrier strain, M9 + 0.2% glucose, 37 °C; labelled compound
# T3 construct: gene livJ; native chromosomal genes, sole carrier in brnQ yhjE double mutant cells
# T3 sequence (P0AD96 24-367): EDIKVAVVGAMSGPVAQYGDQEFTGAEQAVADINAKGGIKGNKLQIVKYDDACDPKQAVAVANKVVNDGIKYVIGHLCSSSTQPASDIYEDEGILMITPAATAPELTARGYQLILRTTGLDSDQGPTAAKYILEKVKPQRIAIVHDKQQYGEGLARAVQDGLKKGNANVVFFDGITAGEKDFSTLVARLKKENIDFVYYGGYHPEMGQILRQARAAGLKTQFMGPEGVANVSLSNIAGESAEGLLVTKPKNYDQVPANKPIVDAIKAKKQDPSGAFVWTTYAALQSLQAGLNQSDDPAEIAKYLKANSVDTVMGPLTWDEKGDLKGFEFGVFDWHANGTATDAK
# T3 sequence (P0AEX7 whole entry partner): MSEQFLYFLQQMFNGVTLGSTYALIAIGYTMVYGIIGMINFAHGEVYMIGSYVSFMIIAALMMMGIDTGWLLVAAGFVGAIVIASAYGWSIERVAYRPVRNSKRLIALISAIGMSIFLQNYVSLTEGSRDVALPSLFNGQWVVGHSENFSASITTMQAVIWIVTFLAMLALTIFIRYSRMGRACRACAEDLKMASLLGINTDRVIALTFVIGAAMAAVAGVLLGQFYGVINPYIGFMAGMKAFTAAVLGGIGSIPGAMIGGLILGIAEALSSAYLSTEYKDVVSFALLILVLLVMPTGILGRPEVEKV
# T3 sequence (P22729 whole entry partner): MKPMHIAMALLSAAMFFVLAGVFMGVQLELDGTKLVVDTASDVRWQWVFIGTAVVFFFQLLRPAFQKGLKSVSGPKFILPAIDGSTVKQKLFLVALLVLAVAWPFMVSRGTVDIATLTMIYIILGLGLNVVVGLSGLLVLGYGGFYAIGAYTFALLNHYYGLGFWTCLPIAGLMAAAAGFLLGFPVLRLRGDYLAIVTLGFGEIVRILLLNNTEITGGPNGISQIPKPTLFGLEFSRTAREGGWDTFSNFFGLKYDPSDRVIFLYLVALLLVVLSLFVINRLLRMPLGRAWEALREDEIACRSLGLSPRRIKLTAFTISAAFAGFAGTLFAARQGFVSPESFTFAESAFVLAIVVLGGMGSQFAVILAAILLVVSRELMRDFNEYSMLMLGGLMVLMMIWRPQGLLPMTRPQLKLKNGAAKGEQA
# T3 sequence (P22731 whole entry partner): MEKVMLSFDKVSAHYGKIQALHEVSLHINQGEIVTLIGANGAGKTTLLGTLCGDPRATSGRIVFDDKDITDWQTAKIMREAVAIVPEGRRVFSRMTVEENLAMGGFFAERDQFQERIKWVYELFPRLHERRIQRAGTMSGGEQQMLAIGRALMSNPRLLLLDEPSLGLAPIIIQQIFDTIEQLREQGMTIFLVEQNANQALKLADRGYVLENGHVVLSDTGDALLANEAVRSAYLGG
# T3 sequence (P0A9S7 whole entry partner): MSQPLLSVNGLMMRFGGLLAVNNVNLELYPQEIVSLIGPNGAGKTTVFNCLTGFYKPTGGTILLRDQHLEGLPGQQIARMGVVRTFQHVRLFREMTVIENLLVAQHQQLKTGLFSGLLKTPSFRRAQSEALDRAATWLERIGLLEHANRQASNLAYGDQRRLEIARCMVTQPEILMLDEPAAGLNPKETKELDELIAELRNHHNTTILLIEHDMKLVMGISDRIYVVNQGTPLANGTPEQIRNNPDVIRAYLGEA
# [7] = substrate: CC(C)[C@H](N)C(=O)O; assay: radiolabelled uptake into whole cells; format: cell-based, Escherichia coli; conditions: M9 + 0.2% glucose, 37 °C, B2933[pUC-yhjE], proton symport, labelled compound
# [8] = substrate: CC[C@H](C)[C@H](N)C(=O)O; assay: radiolabelled uptake into whole cells; format: cell-based, Escherichia coli; conditions: M9 + 0.2% glucose, 37 °C, B2933[pUC-yhjE], proton symport, labelled compound
Molecule,% inhibition at 30-fold molar excess (YhjE [1]),uptake rate (BrnQ),uptake rate (YhjE [2]),uptake rate (YhjE [3]),uptake rate (YhjE [4]),uptake rate (YhjE [5]),uptake rate (YhjE [6]),also measured
N[C@@H](CS)C(=O)O [L-cysteine],"L-tyrosine and L-cysteine, which are structurally unrelated to branched-chain amino acids, produced pronounced inhibitory effects",,,,,,,
CC(C)[C@H](N)C(=O)O [L-valine],,"Comparison of L-valine–specific activity of YhjE, LIV-I, and BrnQ",,,,,,
CC(C)C[C@H](N)C(=O)O [L-leucine],,,"In every case, L-leucine uptake was elevated relative to cells harboring the wild-type pBR-yhjE","In every case, L-leucine uptake was elevated relative to cells harboring the wild-type pBR-yhjE",The lowest effect was observed for the T276I substitution,YhjE M359I variant exhibited L-leucine transport activity more than twofold higher than the wild type,"In every case, L-leucine uptake was elevated relative to cells harboring the wild-type pBR-yhjE",
N[C@@H](Cc1ccc(O)cc1)C(=O)O [L-tyrosine],"L-tyrosine and L-cysteine, which are structurally unrelated to branched-chain amino acids, produced pronounced inhibitory effects",,,,,,,
CC[C@H](C)[C@H](N)C(=O)O [L-isoleucine],,"Comparison of L-isoleucine–specific activity of YhjE, LIV-I, and BrnQ",L-isoleucine uptake was concomitantly reduced,L-isoleucine uptake was concomitantly reduced,L-isoleucine uptake was concomitantly reduced,L-isoleucine uptake was concomitantly reduced,L-isoleucine uptake was concomitantly reduced,"uptake rate (LIV-I (LivJFGHM)): Comparison of L-isoleucine–specific activity of YhjE, LIV-I, and BrnQ"
B1,,,,,,,,Km [7]: 86.7 µM; Km [8]: 70.5 µM
